Molecules are shown by their SMILES.

One experiment relates to Rattus norvegicus. Kind of experiment: Antiinflammatory activity using carrageenan rat paw edema assay along with 15 mg/kg of phenylbutazone. It counts as functional. (The carrageenan paw model is a standard test of acute inflammation.)
Another experiment has as its system Mus musculus. In words: Analgesic activity using mouse phenylquinone writhing assay along with 70 mg/kg of aspirin. It counts as functional.

On to `O=C(O)C1CCN2C(C(=O)c3ccccc3)CCC12` (racemic), for which the figures for the ED50 with Rattus norvegicus and in the experiment with Mus musculus were 96 mg/kg and 399 mg/kg, respectively.
For the compound `O=C(c1ccccc1)C1CCC2[C@@H](C(=O)O)CCN12` (stereo partly specified), the ED50 with Rattus norvegicus came out at 170 mg/kg; in the experiment on Mus musculus, 699 mg/kg.
For the compound `O=C(c1ccccc1)C1CCC2[C@H](C(=O)O)CCN12` (stereo partly specified), the ED50 was 3 mg/kg with Rattus norvegicus and less than 3 mg/kg in the experiment on Mus musculus.

As usually defined, the ED50 is the dose at which the effect has come halfway, by size or by number of responders.

(Values after ChEMBL document CHEMBL1123163, “Absolute configuration of (-)-5-benzoyl-1,2-dihydro-3H-pyrrolo[1,2-alpha]pyrrole-1-carboxylic acid, the active enantiomer of ketorolac” (1986).)
